Here are results for 21 compounds from patent publication US20210380595A1 (ARAXES PHARMA LLC, priority 2018, published 2021).

The first assay addresses T1, KRAS G12C 1-169, his-tagged protein, GDP-loaded (Homo sapiens, UniProt P01116, G12C).
T1 construct: KRAS G12C 1-169, his-tagged protein, GDP-loaded
Nature of the assay: Biochemical assay: covalent modification of KRAS G12C measured by mass spectrometry (RapidFire/TOF or Q-Exactive). Format: binding. The conditions noted are these: tested at 32 μM. The method, then:
Test compounds were prepared as 10 mM stock solutions in DMSO (Fisher cat. #BP-231-100). KRAS G12C 1-169, his-tagged protein, GDP-loaded is diluted to 2 μM or 0.5 μM in buffer (20 mM Hepes, 150 mM NaCl, 1 mM MgCl2). Compounds were tested for activity as follows:
Compounds were diluted to 50× final test concentration in DMSO in 96-well storage plates. Compound stock solutions were vortexed before use and observed cwerefully for any sign of precipitation. Dilutions were as follow: • For 32 μM final compound concentration, compounds were diluted to 1600 μM (3 μL 10 mM compound stock +15.75 μL DMSO and mixed well by pipetting. • For 8 μM final compound concentration, compounds were diluted to 400 μM (2 μL 10 mM compound stock +48 μL DMSO) and mixed well by pipetting. 49 μL of the stock protein solution was added to each well of a 96-well PCR plate (Fisher cat#1423027). 1 μl of the diluted 50× compounds were added to appropriate wells in the PCR plate using 12-channel pipettor. Reactions were mixed carefully and thoroughly by pipetting up/down with a 200 μL multi-channel pipettor. The plate was sealed well with aluminum plate seal, and protein and compound were allowed to react for a desired amount of time. 5 μL of 2% formic acid (Fisher cat#A117) in de-ionized H2O was then added to each well followed by mixing with a pipette to quench the reaction. The plate was then resealed with aluminum seal and stored frozen on dry ice until analyzed as described below.
The above described assays were analyzed by mass spectrometry according to one of the following two procedures:
The MS instrument was set to positive polarity, 2 GHz resolution, and low mass (1700) mode and allowed to equilibrate for 30 minutes. The instrument was then calibrated, switched to acquisition mode and the appropriate method loaded.
After another 30 minute equilibration time, a blank batch (i.e., buffer) was run to ensure equipment is operating properly. The samples were thawed at 37° C. for 10 minutes, briefly centrifuged, and transfered to the bench top. Wells A1 and H12 were spiked with 1 μL 500 μM internal standard peptide, and the plates centrifuged at 2000×g for 5 minutes. The method was then run and masses of each individual well recorded.
The masses (for which integration data is desired) for each well were pasted into the platemap and exported from the analysis. Masses for the internal standards were exported as well. The data at 50 ppm was extracted for the +19 charge state, and identity of well A1 was assigned using the internal standard spike and integrated. Peak data was exported as a TOF list and the above steps were repeated individually, for the +20, +21, +22, +23, +24, and +25 charge states.
The masses and peak intensities of KRAS G12C protein species were measured using a Dionex RSLCnano system (Thermo Scientific) connected to a Q Exactive Plus mass spectrometer (Thermo Scientific).
20 μL of sample was loaded onto a Aeris™ 3.6 μm WIDEPORE C4 200 Å, LC Column 50×2.1 mm column maintained at 40° C. at a flow rate of 600 μL/min with 80% Solvent A (0.1% formic acid in H2O) and 20% Solvent B (0.1% formic acid in acetonitrile). The liquid chromatography conditions were 20% solvent B for 1 minute, 20% to 60% solvent B for 1.5 minutes, 60% to 90% solvent for 0.5 minute, 90% solvent B for 0.2 minute, 90% to 20% solvent B for 0.2 minute, and then equilibrated for 1.6 minute before the following sample injection. The flow rate was maintained at 600 μL/min throughout the sample analysis.
The mass spectrometer was operated in profile mode at a resolution of 17500, 5 microscans, using 50 msec max injection time and an AGC target of 1×10^6, and a full mass range from 800-1850 m/z was recorded. The intact protein mode was applied for optimal ion transfer and maximum sensitivity. The ionization method was electrospray ionization, which used a spray voltage of 4 kV, sheath gas flow set to 50 AU, auxiliary gas flow set to 10 AU and sweep gas flow set to 1 AU. […]
With `C=CC(=O)N1CC2(CCN(c3ccc(F)c(-c4c(C)ccc5[nH]ncc45)c3C#N)CC2)C1` (atropisomer, axis not shown) [Compound I-140, (R)-6-(2-acryloyl-2,7-diazaspiro[3.5]nonan-7-yl)-3-fluoro-2-(5-methyl-1H-indazol-4-yl)benzonitrile], the Bind % entry is “+ (+ indicates binding activity greater than 0% and up to 50%)”.

In the case of `C=CC(=O)N1CC2(CCN(c3ccc(F)c(-c4c(C)ccc5[nH]ncc45)c3C#N)CC2)C1` (atropisomer, axis not shown) [Compound I-141, (S)-6-(2-acryloyl-2,7-diazaspiro[3.5]nonan-7-yl)-3-fluoro-2-(5-methyl-1H-indazol-4-yl)benzonitrile], the Bind % result is “+ (+ indicates binding activity greater than 0% and up to 50%)”.

As for `C=CC(=O)N1CC2(CCN(c3cccc(-c4c(C)ccc5[nH]ncc45)c3C#N)C2)C1` [Compound I-1, 2-(2-acryloyl-2,6-diazaspiro[3.4]octan-6-yl)-6-(5-methyl-1H-indazol-4-yl)benzonitrile], the Bind % entry was “+++ (+++ indicates binding activity greater than 75%)”.

`C=CC(=O)N1CC2(CCN(c3cccc(-c4c(C)ccc5[nH]ncc45)c3OC)C2)C1` [Compound I-2, 1-(6-(2-methoxy-3-(5-methyl-1H-indazol-4-yl)phenyl)-2,6-diazaspiro[3.4]octan-2-yl)prop-2-en-1-one]: the Bind % result is “+ (+ indicates binding activity greater than 0% and up to 50%)”.

As for `C=CC(=O)N1CC2(CCN(c3cccc(-c4c(C)ccc5cnn(C)c45)c3F)C2)C1` [Compound I-3, 1-(6-(3-(1,6-dimethyl-1H-indazol-7-yl)-2-fluorophenyl)-2,6-diazaspiro[3.4]octan-2-yl)prop-2-en-1-one], the Bind % entry is “+ (+ indicates binding activity greater than 0% and up to 50%)”.

As for `CC#CC(=O)N1CC2(CCN(c3cccc(-c4c(C)ccc5[nH]ncc45)c3C#N)C2)C1` [Compound I-4, 2-(2-(but-2-ynoyl)-2,6-diazaspiro[3.4]octan-6-yl)-6-(5-methyl-1H-indazol-4-yl)benzonitrile], the Bind % result was “+ (+ indicates binding activity greater than 0% and up to 50%)”.

As to `C=CC(=O)N1CC2(CCN(c3cccc(-c4c(C)ccc5cnn(C)c45)c3OC)C2)C1` [Compound I-5, 1-(6-(3-(1,6-dimethyl-1H-indazol-7-yl)-2-methoxyphenyl)-2,6-diazaspiro[3.4]octan-2-yl)prop-2-en-1-one], the Bind % result was “++ (++ indicates binding activity from 50 to 75%)”.

As to `C=CC(=O)N1CCC2(CCN(c3cccc(-c4c(O)cccc4F)c3C#N)C2)C1` (stereo not drawn) [Compound I-6, 3-(7-acryloyl-2,7-diazaspiro[4.4]nonan-2-yl)-2′-fluoro-6′-hydroxy-[1,1′-biphenyl]-2-carbonitrile], the Bind % result is “+ (+ indicates binding activity greater than 0% and up to 50%)”.

Regarding `C=CC(=O)N1CC2(CCN(c3cc(N4CCOCC4)cc(-c4c(C)ccc5[nH]ncc45)c3C#N)C2)C1` [Compound I-7, 2-(2-acryloyl-2,6-diazaspiro[3.4]octan-6-yl)-6-(5-methyl-1H-indazol-4-yl)-4-morpholino-benzonitrile], the Bind % entry is reported as “+++ (+++ indicates binding activity greater than 75%)”.

On to `C=CC(=O)N1CC2(CCN(c3cccc(-c4c(C)ccc5[nH]ncc45)c3F)C2)C1` [Compound I-8, 1-(6-(2-fluoro-3-(5-methyl-1H-indazol-4-yl)phenyl)-2,6-diazaspiro[3.4]octan-2-yl)prop-2-en-1-one], for which the Bind % entry was “+ (+ indicates binding activity greater than 0% and up to 50%)”.

Regarding `C=CC(=O)N1CCC2(C1)CN(c1cccc(-c3c(C)ccc4[nH]ncc34)c1C#N)C2` [Compound I-9, 2-(6-acryloyl-2,6-diazaspiro[3.4]octan-2-yl)-6-(5-methyl-1H-indazol-4-yl)benzonitrile], the Bind % result was “+ (+ indicates binding activity greater than 0% and up to 50%)”.

In the case of `C=CC(=O)N1CCC2(C1)CN(c1cccc(-c3c(O)cccc3F)c1C#N)C2` [Compound I-10, 3-(6-acryloyl-2,6-diazaspiro[3.4]octan-2-yl)-2′-fluoro-6′-hydroxy-[1,1′-biphenyl]-2-carbonitrile], the Bind % entry was “+ (+ indicates binding activity greater than 0% and up to 50%)”.

Regarding `C=CC(=O)N1CCC2(C1)CN(c1cccc(-c3c(C)ccc4cnn(C)c34)c1C#N)C2` [Compound I-11, 2-(6-acryloyl-2,6-diazaspiro[3.4]octan-2-yl)-6-(1,6-dimethyl-1H-indazol-7-yl)benzonitrile], the Bind % entry was “+ (+ indicates binding activity greater than 0% and up to 50%)”.

Consider `CC#CC(=O)N1CC2(CCN(c3cccc(-c4c(C)ccc5cnn(C)c45)c3C#N)C2)C1` [Compound I-12, 2-(2-(but-2-ynoyl)-2,6-diazaspiro[3.4]octan-6-yl)-6-(1,6-dimethyl-1H-indazol-7-yl)benzonitrile], for which the Bind % entry was “+ (+ indicates binding activity greater than 0% and up to 50%)”.

Turning to `C=CC(=O)N1CCC2(CCN(c3cccc(-c4c(C)ccc5cnn(C)c45)c3C#N)C2)C1` (stereo not drawn) [Compound I-13, 2-(7-acryloyl-2,7-diazaspiro[4.4]nonan-2-yl)-6-(1,6-dimethyl-1H-indazol-7-yl)benzonitrile], the Bind % entry was “+ (+ indicates binding activity greater than 0% and up to 50%)”.

In the case of `C=CC(=O)N1CC2(CCN(c3cc(OC)cc(-c4c(C)ccc5[nH]ncc45)c3C#N)C2)C1` [Compound I-14, 2-(2-acryloyl-2,6-diazaspiro[3.4]octan-6-yl)-4-methoxy-6-(5-methyl-1H-indazol-4-yl)benzonitrile], the Bind % result is recorded as “+++ (+++ indicates binding activity greater than 75%)”.

For the compound `C=CC(=O)N1CCC2(CC1)CN(c1cccc(-c3c(C)ccc4cnn(C)c34)c1C#N)C2` [Compound I-15, 2-(7-acryloyl-2,7-diazaspiro[3.5]nonan-2-yl)-6-(1,6-dimethyl-1H-indazol-7-yl)benzonitrile], the Bind % result is “+ (+ indicates binding activity greater than 0% and up to 50%)”.

`C=CC(=O)N1CC2(CCN(c3cc(N4CCOCC4)cc(-c4c(C)ccc5cnn(C)c45)c3C#N)C2)C1` [Compound I-16, 2-(2-acryloyl-2,6-diazaspiro[3.4]octan-6-yl)-6-(1,6-dimethyl-1H-indazol-7-yl)-4-morpholino-benzonitrile]: the Bind % entry was “+++ (+++ indicates binding activity greater than 75%)”.

Staying with this assay, now noted: tested at a concentration of 8 μM.
Take `C=CC(=O)N1CC2(CCN(c3ccc(F)c(-c4c(C)ccc5[nH]ncc45)c3C#N)C2)C1` (atropisomer, axis not shown) [Compound I-43, (R)-6-(2-acryloyl-2,6-diazaspiro[3.4]octan-6-yl)-3-fluoro-2-(5-methyl-1H-indazol-4-yl)benzonitrile]: the Bind % entry is listed as “+++ (+++ indicates binding activity greater than 75%)”.

In the case of `C=CC(=O)N1CC2(CCN(c3ccc(F)c(-c4c(C)ccc5cnn(C)c45)c3C#N)C2)C1` (atropisomer, axis not shown) [Compound I-44, (S)-6-(2-acryloyl-2,6-diazaspiro[3.4]octan-6-yl)-2-(1,6-dimethyl-1H-indazol-7-yl)-3-fluorobenzo-nitrile], the Bind % result is “+++ (+++ indicates binding activity greater than 75%)”.

For the compound `C=CC(=O)N1CC2(CCN(c3ccc(F)c(-c4c(C)ccc5cnn(C)c45)c3C#N)C2)C1` (atropisomer, axis not shown) [Compound I-45, (R)-6-(2-acryloyl-2,6-diazaspiro[3.4]octan-6-yl)-2-(1,6-dimethyl-1H-indazol-7-yl)-3-fluorobenzo-nitrile], the Bind % entry was “+ (+ indicates binding activity greater than 0% and up to 50%)”.
